Source: US20250188110A1, “SPECIFIC SMALL MOLECULE INHIBITORS THAT BLOCK KMT9 METHYLTRANSFERASE ACTIVITY AND FUNCTION” (ALBERT-LUDWIGS-UNIVERSITÄT FREIBURG, priority 2021, published 2025)

How the values were obtained:
KMT9 [1] = target: T1, KMT9 (Homo sapiens, UniProt Q9Y5N5); assay: KMT9 methyltransferase inhibition assay, 3H-SAM scintillation (entries 1-154); format: biochemical; conditions: entries 1-154: 3H-SAM assay, 25 nM KMT9, 5 μM ETF1
T1 sequence (Q9Y5N5 1-214): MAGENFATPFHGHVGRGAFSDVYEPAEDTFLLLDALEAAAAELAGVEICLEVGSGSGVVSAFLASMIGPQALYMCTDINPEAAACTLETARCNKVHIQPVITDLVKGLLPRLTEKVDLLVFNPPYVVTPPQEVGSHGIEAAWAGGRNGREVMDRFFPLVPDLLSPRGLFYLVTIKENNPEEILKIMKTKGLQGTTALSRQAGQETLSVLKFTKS
T1 sequence (Q9UI30 1-120 isoform Q9UI30-2 partner): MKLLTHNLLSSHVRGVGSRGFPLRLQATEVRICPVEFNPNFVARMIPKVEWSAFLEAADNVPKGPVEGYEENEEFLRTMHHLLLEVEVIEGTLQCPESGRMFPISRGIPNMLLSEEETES
Procedure, shortened: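 Final 25 nM KMT9, 5 μM ETF1 (residues 140-275), 0.3 μM 3H-SAM plus 0.7 μM SAM in pH 8.5 BTP buffer, 2 h at 30° C. TCA-quenched, filter-washed, methylation counted by scintillation; % inhibition vs DMSO and no-enzyme controls, IC50 from four-parameter fit.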

KMT9 [2] = target: T1, KMT9; assay: Microscale thermophoresis (MST) KMT9 binding; conditions: microscale thermophoresis, His-tag labelled KMT9 (20 nM); read-out: MST
Procedure, shortened: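 His-tagged KMT9 (20 nM), RED-Tris-NTA labelled, titrated with varying compound concentrations in 25 mM HEPES pH 7.5, 100 mM NaCl, 1 mM DTT, 0.05% Tween. MST at 40% MST and 100% LED power, Nano-RED excitation; Kd binned A ≤10 nM, B 10–100, C 100–1000, D >1000 nM.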

KMT9 [3] = target: T1, KMT9; assay: KMT9 thermal shift assay (SyproOrange); format: binding; conditions: ΔTm; 500 µM compound, 2 μM KMT9, 5X SO; read-out: Thermal shift
Procedure, shortened: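 Recombinant KMT9 was incubated with compound and SyproOrange at 25° C in 50 mM BTP pH 8.5, 1 mM MgCl2, 1 mM DTT. It was then heated from 20° C to 95° C at 1° C per 15 s with fluorescence read each step. Tm came from a Boltzmann sigmoidal fit; ΔTm relative to DMSO control, binned in 5 K ranges.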

Structure (SMILES)	IC50 (KMT9 [1]) [nM]	Kd (KMT9 [2]) [nM]	ΔTm at 500 µM (KMT9 [3]) [°C]
Nc1ncnc2c1c(-c1ccccc1)cn2[C@@H]1C[C@H](CNCCCNCCc2ccccc2)[C@@H](O)[C@H]1O [466 (340), (1R,2S,3R,5R)-3-{4-amino-5-phenylpyrrolo[2,3-d]pyrimidin-7-yl}-5-[({3-[(2-phenylethyl)amino]propyl}amino)methyl]cyclopentane-1,2-diol]	100 to 1000	100 to 1000	10 to 15
CCC(C)c1cn([C@@H]2C[C@H](CNCCCNCCc3ccccc3)[C@@H](O)[C@H]2O)c2ncnc(N)c12 (stereo partly drawn) [469 (343), (1R,2S,3R,5R)-3-(4-Amino-5-(sec-butyl)-7H-pyrrolo[2,3-d]pyrimidin-7-yl)-5-(((3-(phenethylamino)propyl)amino)methyl) cyclopentane-1,2-diol]	1000 to 10000	100 to 1000	10 to 15
Nc1ncnc2c1c(-c1ccncc1)cn2[C@@H]1C[C@H](CNCCCNCCc2ccccc2)[C@@H](O)[C@H]1O [470 (344), (1R,2S,3R,5R)-3-(4-Amino-5-(pyridin-4-yl)-7H-pyrrolo[2,3-d]pyrimidin-7-yl)-5-(((3-(phenethylamino)propyl)amino)methyl) cyclopentane-1,2-diol]	100 to 1000	100 to 1000	10 to 15
Nc1ncnc2c1c(-c1ccncn1)cn2[C@@H]1C[C@H](CNCCCNCCc2ccccc2)[C@@H](O)[C@H]1O [471 (345), (1R,2S,3R,5R)-3-(4-Amino-5-(pyrimidin-4-yl)-7H-pyrrolo[2,3-d]pyrimidin-7-yl)-5-(((3-(phenethylamino)propyl)amino)methyl) cyclopentane-1,2-diol]	100 to 1000	100 to 1000	15 to 20
Nc1ncnc2c1c(-c1ccn[nH]1)cn2[C@@H]1C[C@H](CNCCCNCCc2ccccc2)[C@@H](O)[C@H]1O [472 (346), (1R,2S,3R,5R)-3-(4-Amino-5-(1H-pyrazol-5-yl)-7H-pyrrolo[2,3-d]pyrimidin-7-yl)-5-(((3-(phenethylamino)propyl)amino)methyl) cyclopentane-1,2-diol]	100 to 1000	10 to 100	15 to 20
Nc1ncnc2c1c(-c1ncc[nH]1)cn2[C@@H]1C[C@H](CNCCCNCCc2ccccc2)[C@@H](O)[C@H]1O [473 (347), (1R,2S,3R,5R)-3-(4-Amino-5-(1H-imidazol-2-yl)-7H-pyrrolo[2,3-d]pyrimidin-7-yl)-5-(((3-(phenethylamino)propyl)amino)methyl) cyclopentane-1,2-diol]	100 to 1000	10 to 100	15 to 20
Nc1ncnc2c1c(-c1nccs1)cn2[C@@H]1C[C@H](CNCCCNCCc2ccccc2)[C@@H](O)[C@H]1O [474 (348), (1R,2S,3R,5R)-3-(4-Amino-5-(thiazol-2-yl)-7H-pyrrolo[2,3-d]pyrimidin-7-yl)-5-(((3-(phenethylamino)propyl)amino)methyl) cyclopentane-1,2-diol]	1000 to 10000	10 to 100	15 to 20
Nc1ncnc2c1c(-c1ncn[nH]1)cn2[C@@H]1C[C@H](CNCCCNCCc2ccccc2)[C@@H](O)[C@H]1O [475 (349), (1R,2S,3R,5R)-3-(4-amino-5-(1H-1,2,4-triazol-5-yl)-7H-pyrrolo[2,3-d]pyrimidin-7-yl)-5-(((3-(phenethylamino)propyl)amino)methyl) cyclopentane-1,2-diol]	100 to 1000	10 to 100	15 to 20
Cn1ccc(-c2cn([C@@H]3C[C@H](CNCCCNCCc4ccccc4)[C@@H](O)[C@H]3O)c3ncnc(N)c23)n1 [476 (350), (1R,2S,3R,5R)-3-(4-Amino-5-(1-methyl-1H-pyrazol-3-yl)-7H-pyrrolo[2,3-d]pyrimidin-7-yl)-5-(((3-(phenethylamino)propyl)amino)methyl) cyclopentane-1,2-diol]	100 to 1000	100 to 1000	15 to 20
Nc1ncnc2c1c(-c1ccn(Cc3ccccc3)n1)cn2[C@@H]1C[C@H](CNCCCNCCc2ccccc2)[C@@H](O)[C@H]1O [477 (351), (1R,2S,3R,5R)-3-(4-Amino-5-(1-benzyl-1H-pyrazol-3-yl)-7H-pyrrolo[2,3-d]pyrimidin-7-yl)-5-(((3-(phenethylamino)propyl)amino)methyl) cyclopentane-1,2-diol]	1000 to 10000	10 to 100	15 to 20

The next lines start with the values.

IC50 (KMT9 [1]) [nM]	Kd (KMT9 [2]) [nM]	ΔTm at 500 µM (KMT9 [3]) [°C]	Structure (SMILES)
> 10000	10 to 100	15 to 20	Nc1ncnc2c1c(Br)cn2[C@@H]1C[C@H](CNCCCNCCc2ccccc2)[C@@H](O)[C@H]1O [463 (337), (1R,2S,3R,5R)-3-(4-Amino-5-bromo-7H-pyrrolo[2,3-d]pyrimidin-7-yl)-5-(((3-(phenethylamino)propyl)amino)methyl) cyclopentane-1,2-diol]
1000 to 10000	10 to 100	10 to 15	C=Cc1cn([C@@H]2C[C@H](CNCCCNCCc3ccccc3)[C@@H](O)[C@H]2O)c2ncnc(N)c12 [464 (338), (1R,2S,3R,5R)-3-(4-amino-5-vinyl-7H-pyrrolo[2,3-d]pyrimidin-7-yl)-5-(((3-(phenethylamino)propyl)amino)methyl) cyclopentane-1,2-diol]
1000 to 10000	100 to 1000	10 to 15	CCc1cn([C@@H]2C[C@H](CNCCCNCCc3ccccc3)[C@@H](O)[C@H]2O)c2ncnc(N)c12 [465 (339), (1R,2S,3R,5R)-3-{4-amino-5-ethylpyrrolo[2,3-d]pyrimidin-7-yl}-5-[{{3-[(2-phenylethyl)amino]propyl}amino)methyl]cyclopentane-1,2-diol]
1000 to 10000	100 to 1000	10 to 15	Cc1cn([C@@H]2C[C@H](CNCCCNCCc3ccccc3)[C@@H](O)[C@H]2O)c2ncnc(N)c12 [467 (341), (1R,2S,3R,5R)-3-(4-Amino-5-methyl-7H-pyrrolo[2,3-d]pyrimidin-7-yl)-5-(((3-(phenethylamino)propyl)amino)methyl) cyclopentane-1,2-diol]
1000 to 10000	100 to 1000	15 to 20	Nc1ncnc2c1c(C1CC1)cn2[C@@H]1C[C@H](CNCCCNCCc2ccccc2)[C@@H](O)[C@H]1O [468 (342), (1R,2S,3R,5R)-3-(4-Amino-5-cyclopropyl-7H-pyrrolo[2,3-d]pyrimidin-7-yl)-5-(((3-(phenethylamino)propyl)amino)methyl) cyclopentane-1,2-diol]
1000 to 10000	10 to 100	15 to 20	Cn1cc(-c2cn([C@@H]3C[C@H](CNCCCNCCc4ccccc4)[C@@H](O)[C@H]3O)c3ncnc(N)c23)cn1 [478 (352), (1R,2S,3R,5R)-3-(4-Amino-5-(1-methyl-1H-pyrazol-4-yl)-7H-pyrrolo[2,3-d]pyrimidin-7-yl)-5-(((3-(phenethylamino)propyl)amino)methyl) cyclopentane-1,2-diol]
1000 to 10000	100 to 1000	10 to 15	Nc1ncnc2c1c(C1CCOCC1)cn2[C@@H]1C[C@H](CNCCCNCCc2ccccc2)[C@@H](O)[C@H]1O [479 (353), (1R,2S,3R,5R)-3-(4-Amino-5-(tetrahydro-2H-pyran-4-yl)-7H-pyrrolo[2,3-d]pyrimidin-7-yl)-5-(((3-(phenethylamino)propyl)amino)methyl) cyclopentane-1,2-diol]
1000 to 10000	> 1000	≤ 10	CN1CCC(c2cn([C@@H]3C[C@H](CNCCCNCCc4ccccc4)[C@@H](O)[C@H]3O)c3ncnc(N)c23)CC1 [480 (354), (1R,2S,3R,5R)-3-(4-Amino-5-(1-methylpiperidin-4-yl)-7H-pyrrolo[2,3-d]pyrimidin-7-yl)-5-(((3-(phenethylamino)propyl)amino)methyl) cyclopentane-1,2-diol]
1000 to 10000	100 to 1000	10 to 15	CC(=O)N1CCC(c2cn([C@@H]3C[C@H](CNCCCNCCc4ccccc4)[C@@H](O)[C@H]3O)c3ncnc(N)c23)CC1 [481 (355), 1-(4-(4-Amino-7-((1R,2S,3R,4R)-2,3-dihydroxy-4-(((3-(phenethylamino)propyl)amino)methyl)cyclopentyl)-7H-pyrrolo[2,3-d]pyrimidin-5-yl)piperidin-1-yl)ethan-1-one]
1000 to 10000	> 1000	10 to 15	CN1CC=C(c2cn([C@@H]3C[C@H](CNCCCNCCc4ccccc4)[C@@H](O)[C@H]3O)c3ncnc(N)c23)CC1 [482 (356), (1R,2S,3R,5R)-3-(4-amino-5-(1-methyl-1,2,3,6-tetrahydropyridin-4-yl)-7H-pyrrolo[2,3-d]pyrimidin-7-yl)-5-(((3-(phenethylamino)propyl)amino)methyl) cyclopentane-1,2-diol]
